Results taken from patent publication US8247211B2, “Glycopeptide antibiotics” (American Cyanamid Company, priority 2001, dated 2012).
Converted amounts (≈) assume the structure as drawn.

Assays:
Enterococcus sp. = assay: In vitro antibacterial evaluation: minimum inhibitory concentration (MIC), broth dilution method; assay type: cell-based
In short: (§1)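 NCCLS M7-A2 broth dilution; Muller-Hinton II […]; 5×10^5 CFU/mL; 64-0.06 μg/mL. MIC = lowest concentration with no growth.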

Escherichia coli = assay: as above; assay type: cell-based; settings: strain ATCC 25922
In short: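 Using Muller-Hinton II […] and an inoculum of 5×10^5 CFU/mL, antibiotic dilutions from 64 down to 0.06 μg/mL were tested following NCCLS M7-A2. The MIC is the lowest concentration inhibiting growth, including in methicillin-, penicillin- or vancomycin-resistant clinical isolates.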

Staphylococcus sp. = assay: as above; assay type: cell-based
In short: as §1

Streptococcus sp. = assay: as above; assay type: cell-based
In short: as §1

[1] = tested on: Enterococcus faecalis (GC 2246), vancomycin resistant strain; assay: Acute lethal infection in mice (ED50); assay type: in vivo; settings: female CD-1 mice, intraperitoneal challenge, intravenous dose 30 min. after infection, 7 day survival ratios
In short: (§2)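 IP bacterial challenge, female CD-1 mice; inoculum lethal to untreated controls in 24-48 hr. IV dosing in saline or 5% dextrose 30 min post-infection, 5 mice/dose. ED50 from 7-day survival, 3 tests pooled.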

[2] = tested on: Staphylococcus aureus-SMITH (GC 4543); assay: Acute lethal infection in mice (ED50); assay type: in vivo; settings: female CD-1 mice, intraperitoneal challenge, intravenous dose 30 min. after infection, 7 day survival ratios
In short: as §2

[3] = broth dilution, 18 hours at 35° C.

`CC(c1ccccc1)C1NC(=O)CNC(=O)C(CO)NC(=O)C(C(O)C2CNC(=N)N2C2OC(CO)C(O)C(O)C2O)NC(=O)C(C(O)C2CNC(=N)N2)NC(=O)C(Cc2ccc(OC3OC(CO)C(OC4OC(COC(=O)C(c5ccccc5)c5ccccc5)C(O)C(O)C4O)C(O)C3O)cc2)NC1=O` (stereo not drawn) [Example 96c, Cyclo[glycyl-β-methylphenylalanyl-O-[4-O-[6-O-(diphenylacetyl)hexopyranosyl)hexopyranosyl]tyrosyl-3-(2-iminoimidazolidin-4-yl)seryl-3-(3-hexopyranosyl-2-iminoimidazolidin-4-yl)serylseryl]] was tested, and the “MIC Enterococcus faecalis (GC 2242)” value (Enterococcus sp.; Enterococcus faecalis (GC 2242), broth dilution, 18 hours at 35° C.) was 1 µg/mL (≈ 0.671 µM), the “MIC Enterococcus faecalis (ATCC 29212)” value (Enterococcus sp.; strain ATCC 29212) was 2 µg/mL (≈ 1.34 µM) and the “MIC Enterococcus faecalis (GC 2242)” value (Enterococcus sp.; strain GC 2242) was 1 µg/mL (≈ 0.671 µM). The “MIC Enterococcus faecium (GC 2243)” value (Enterococcus sp.; strain GC 2243) was 2 µg/mL (≈ 1.34 µM), the “MIC Enterococcus faecalis (GC 4552)” value (Enterococcus sp.; strain GC 4552) was 2 µg/mL (≈ 1.34 µM) and the “MIC Enterococcus faecalis (GC 4553)” value (Enterococcus sp.; strain GC 4553) was 2 µg/mL (≈ 1.34 µM). The “MIC Enterococcus faecalis (GC 4554)” value (Enterococcus sp.; strain GC 4554) was 2 µg/mL (≈ 1.34 µM), the “MIC Enterococcus faecium (GC 4556)” value (Enterococcus sp.; strain GC 4556) was 2 µg/mL (≈ 1.34 µM) and the “MIC Enterococcus faecium (GC 4557)” value (Enterococcus sp.; strain GC 4557) was 1 µg/mL (≈ 0.671 µM). For the same compound, the “MIC Enterococcus avium (GC 4558)” value (Enterococcus sp.; strain GC 4558) was 2 µg/mL (≈ 1.34 µM), the “MIC Escherichia coli (ATCC 25922)” value (Escherichia coli) was 64 µg/mL (≈ 43 µM) and the “MIC Staphylococcus aureus (ATCC 29213)” value (Staphylococcus sp.; [3]) was 1 µg/mL (≈ 0.671 µM). For the same compound, the “MIC Staphylococcus aureus (GC 1131)” value (Staphylococcus sp.; [3]) was 0.5 µg/mL (≈ 0.336 µM), the “MIC Staphylococcus aureus (GC 4541)” value (Staphylococcus sp.; [3]) was 0.5 µg/mL (≈ 0.336 µM) and the “MIC Staphylococcus aureus (GC 4542)” value (Staphylococcus sp.; [3]) was 1 µg/mL (≈ 0.671 µM). The “MIC Staphylococcus aureus (GC 4544)” value (Staphylococcus sp.; [3]) was 1 µg/mL (≈ 0.671 µM), the “MIC Staphylococcus aureus (GC 4545)” value (Staphylococcus sp.; [3]) was 0.5 µg/mL (≈ 0.336 µM) and the “MIC Staphylococcus aureus-SMITH (GC 4543)” value (Staphylococcus sp.; strain GC 4543, 18 hours at 35° C.) was 0.5 µg/mL (≈ 0.336 µM). For the same compound, the “MIC Staphylococcus haemolyticus (GC 4546)” value (Staphylococcus sp.; strain GC 4546) was 0.5 µg/mL (≈ 0.336 µM), the “MIC Coagulase Negative Staphylococcus (GC 4547)” value (Staphylococcus sp.; strain GC 4547) was 1 µg/mL (≈ 0.671 µM) and the “MIC Coagulase Negative Staphylococcus (GC 4548)” value (Staphylococcus sp.; strain GC 4548) was 0.25 µg/mL (≈ 0.168 µM). The “MIC Coagulase Negative Staphylococcus (GC 4549)” value (Staphylococcus sp.; strain GC 4549) was 1 µg/mL (≈ 0.671 µM), the “MIC Coagulase Negative Staphylococcus (GC 4551)” value (Staphylococcus sp.; strain GC 4551) was 1 µg/mL (≈ 0.671 µM) and the “MIC Coagulase Negative Staphylococcus (ID-3941)” value (Staphylococcus sp.; strain ID-3941) was 0.5 µg/mL (≈ 0.336 µM). For the same compound, the “MIC Staphylococcus aureus-SMITH (GC 4543)” value (Staphylococcus sp.; strain SMITH GC 4543, broth dilution, 18 hours at 35° C.) was 0.5 µg/mL (≈ 0.336 µM), the “MIC Streptococcus agalactiae (GC 4564)” value (Streptococcus sp.; Streptococcus agalactiae (GC 4564), broth dilution, 18 hours at 35° C.) was under 0.06 µg/mL and the “MIC Streptococcus pneumoniae (GC 4565)” value (Streptococcus sp.; Streptococcus pneumoniae (GC 4565), broth dilution, 18 hours at 35° C.) was under 0.06 µg/mL. The “MIC Streptococcus pyogenes (ID-3187)” value (Streptococcus sp.; Streptococcus pyogenes (ID-3187), broth dilution, 18 hours at 35° C.) was under 0.06 µg/mL, the “MIC Streptococcus agalactiae (GC 4564)” value (Streptococcus sp.; strain GC 4564) was under 0.06 µg/mL and the “MIC Streptococcus pneumoniae (GC 4565)” value (Streptococcus sp.; strain GC 4565) was under 0.06 µg/mL. For the same compound, the “MIC Streptococcus pyogenes (ID-3187)” value (Streptococcus sp.; strain ID-3187) was under 0.06 µg/mL, the median effective dose (ED50), Enterococcus faecalis (GC 2246) [1] was 5.2 mg/kg and the median effective dose (ED50), Staphylococcus aureus-SMITH (GC 4543) [2] was 0.29 mg/kg.
